Test results published in patent US20140315876A1, “BETA-LACTAMASE INHIBITORS” (priority 2013, published 2014).
Where a name gives a salt, the structure may show the parent alone.

Columns and labels:
[1] = system: bacterial strains that express the class D cephalosporinase OXA-15; assay: Synergy MIC / standard BLI potentiation MIC assay, strains expressing OXA-15; format: cell-based, E. coli; conditions: in the presence of a β-lactam; comparator Avibactam (comparator compound CCC)
In short: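 Broth microdilution in CAMHB per CLSI, ~10^5 CFU/mL, 18-20 h at 37° C; MIC is lowest concentration with no visible turbidity. Potentiation: β-lactam 128-0.13 μg/mL with BLI fixed at 4 μg/mL. Synergy: BLI serially diluted with β-lactam fixed. Engineered E. coli kept on 25 μg/mL tetracycline.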

[2] = system: bacterial strains that express KPC β-lactamases; assay: Synergy MIC / standard BLI potentiation MIC assay, strains expressing KPC β-lactamases; format: cell-based; conditions: more active for at least one KPC strain and/or better spectrum of activity than Avibactam; in the presence of a β-lactam
Description: The experimental protocol was performed according to Clinical and Laboratory Standards Institute (CLSI) guidelines with modifications as described below (CLSI guidelines can be derived from the CLSI document M07-A9 published in January 2012: “Methods for Dilution Antimicrobial Susceptibility Tests for Bacteria That Grow Aerobically; Approved Standard-Ninth Edition”).
To prepare for MIC testing, frozen glycerol stocks of clinical isolates (Klebsiella pneumoniae, Eschericia coli, Enterobacter spp, Citrobacter spp, or Pseudomonas aeruginosa) were used to streak for isolated colonies on rich, non-selective, tryptic soy agar containing 5% sheep's blood (TSAB). Frozen glycerol stocks of laboratory engineered, isogenic E. coli strains, which contain cloned β-lactamase expressing plasmids were used to streak for isolated colonies on rich, selective LB agar supplemented with 25 μg/mL tetracycline to maintain the plasmid. All strains were incubated at 37° C. for 18-24 hrs.
On the day of testing, primary cultures were started by scraping off 5-10 colonies from the TSAB plates containing clinical strains or the tetracycline supplemented LB plates containing engineered strains. The clinical strain material was suspended in ˜5 mL of cation adjusted Mueller Hinton Broth (CAMHB) in 14 mL culture tubes. The engineered strain material was suspended in CAMHB (supplemented with 25 μg/mL tetracycline) in 14 mL culture tubes. All strains were incubated at 37° C. with aeration (200 rpm) for ˜2 hrs until the optical density at 600 nm (OD600) was ≧0.1.
The two compound components of the assay were each diluted in CAMHB and added to the 96-well broth microdilution assay plates. 50 μL of the β-lactam was added to each well of the assay plate in 2-fold dilutions with final concentrations ranging from 128 to 0.13 μg/mL. 25 μL of the BLI compound was added to all wells in the broth microdilution plates at a final concentration of 4 μg/mL. Inoculum cultures were prepared by standardizing the primary cultures to OD600=0.1 and then adding 20 μL of the adjusted primary culture per 1 mL CAMHB for clinical strains or CAMHB (supplemented with tetracycline at 100 μg/mL) for engineered strains, so that the final inoculum density was ˜10^5 colony forming units per milliliter. Diluted inoculum cultures were used to inoculate 25 μL per well in 96-well broth microdilution assay plates. The final volume of each well was 100 μL and contained a β-lactam at different concentrations, a BLI compound at 4 μg/mL concentration, the bacterial culture at an OD600 of approximately 0.001 and when necessary tetracycline at 25 μg/mL.
Plates were incubated for 18-20 hours at 37° C. with aeration (200 rpm). Following incubation, growth was confirmed visually placing plates over a viewing apparatus (stand with a mirror underneath) and then OD600 was measured using a SpectraMax 340PC384 plate reader (Molecular Devices, Sunnyvale, Calif.). Growth was defined as turbidity that could be detected with the naked eye or achieving minimum OD600 of 0.1. MIC values were defined as the lowest concentration producing no visible turbidity.
The synergy MIC (sMIC) assay determines the concentration of the BLI required to potentiate the activity of a fixed concentration of a β-lactam antibiotic against β-lactamase producing bacterial strains. The experimental protocol was performed according to Clinical and Laboratory Standards Institute (CLSI) guidelines with modifications as described below (CLSI guidelines can be derived from the CLSI document M07-A9 published in January 2012: “Methods for Dilution Antimicrobial Susceptibility Tests for Bacteria That Grow Aerobically; Approved Standard-Ninth Edition”). […]

| SMILES | activity against bacterial strains that express the class D cephalosporinase OXA-15, compared with Avibactam [1] | activity and/or spectrum of activity against bacterial strains that express KPC β-lactamases, compared with Avibactam [2] |
| --- | --- | --- |
| O=C1N2C[C@@H](CC[C@H]2c2nnc(CCCC3CNC3)o2)N1OS(=O)(=O)O [Compound 743, (2S,5R)-2-(5-(3-(azetidin-3-yl)propyl)-1,3,4-oxadiazol-2-yl)-7-oxo-1,6-diazabicyclo[3.2.1]octan-6-yl hydrogen sulfate] | more active than Avibactam | more active than Avibactam |
| O=C1N2C[C@@H](CC[C@H]2c2nnc(COC3CNC3)o2)N1OS(=O)(=O)O [Compound 744, (2S,5R)-2-(5-((azetidin-3-yloxy)methyl)-1,3,4-oxadiazol-2-yl)-7-oxo-1,6-diazabicyclo[3.2.1]octan-6-yl hydrogen sulfate] | more active than Avibactam | more active than Avibactam |
| O=C1N2C[C@@H](CC[C@H]2c2nnc(CCNC3CNC3)o2)N1OS(=O)(=O)O [Compound 745, (2S,5R)-2-(5-(2-(azetidin-3-ylamino)ethyl)-1,3,4-oxadiazol-2-yl)-7-oxo-1,6-diazabicyclo[3.2.1]octan-6-yl hydrogen sulfate] | more active than Avibactam | more active than Avibactam |
| N=C(N)N1CC(NCc2nnc([C@@H]3CC[C@@H]4CN3C(=O)N4OS(=O)(=O)O)o2)C1 [Compound 746, (2S,5R)-2-(5-(((1-carbamimidoylazetidin-3-yl)amino)methyl)-1,3,4-oxadiazol-2-yl)-7-oxo-1,6-diazabicyclo[3.2.1]octan-6-yl hydrogen sulfate] | more active than Avibactam | more active than Avibactam |
| N=C(N)N[C@H]1C[C@@H](c2nnc([C@@H]3CC[C@@H]4CN3C(=O)N4OS(=O)(=O)O)o2)C1 [Compound 749, (2S,5R)-2-(5-((1s,3R)-3-guanidinocyclobutyl)-1,3,4-oxadiazol-2-yl)-7-oxo-1,6-diazabicyclo[3.2.1]octan-6-yl hydrogen sulfate] | more active than Avibactam | more active than Avibactam |
| O=C1N2C[C@@H](CC[C@H]2c2nnc(C3CC4(CNC4)C3)o2)N1OS(=O)(=O)O [Compound 750, (2S,5R)-2-(5-(2-azaspiro[3,3]heptan-6-yl)-1,3,4-oxadiazol-2-yl)-7-oxo-1,6-diazabicyclo[3.2.1]octan-6-yl hydrogen sulfate] | more active than Avibactam | more active than Avibactam |
| N[C@H]1C[C@H](Cc2nnc([C@@H]3CC[C@@H]4CN3C(=O)N4OS(=O)(=O)O)o2)C1 [Compound 751, (2S,5R)-2-(5-(((1r,3S)-3-aminocyclobutyl)methyl)-1,3,4-oxadiazol-2-yl)-7-oxo-1,6-diazabicyclo[3.2.1]octan-6-yl hydrogen sulfate] | more active than Avibactam | more active than Avibactam |
| N=C(N)NC1CC(Cc2nnc([C@@H]3CC[C@@H]4CN3C(=O)N4OS(=O)(=O)O)o2)C1 (stereo partly drawn) [Compound 752, (2S,5R)-2-(5-((3-guanidinocyclobutyl)methyl)-1,3,4-oxadiazol-2-yl)-7-oxo-1,6-diazabicyclo[3.2.1]octan-6-yl hydrogen sulfate] | more active than Avibactam | more active than Avibactam |
